Tests used:
[1] = target: T1, human TRPV1 receptor (hTRPV1) (Homo sapiens, UniProt Q8NER1); experiment: Capsaicin activation assay (Ca2+ influx, FLIPR); type: cell-based; conditions: hTRPV1 in 1321N1 cells, 0.05 μM capsaicin
T1 construct: expressed in transfected cells
Procedure: Dulbecco's modified Eagle medium (D-MEM) (with 4.5 mg/mL glucose) and fetal bovine serum were obtained from Hyclone Laboratories, Inc. (Logan, Utah). Dulbecco's phosphate-buffered saline (D-PBS) (with 1 mg/mL glucose and 3.6 mg/l Na pyruvate, without phenol red), L-glutamine, hygromycin B, and Lipofectamine® were obtained from Life Technologies (Grand Island, N.Y.). G418 sulfate was obtained from Calbiochem-Novabiochem Corp. (San Diego, Calif.). Capsaicin (8-methyl-N-vanillyl-6-nonenamide) was obtained from Sigma-Aldrich, Co. (St. Louis, Mo.). Fluo-4 AM (N-[4-[6-[(acetyloxy)methoxy]-2,7-difluoro-3-oxo-3H-xanthen-9-yl]-2-[2-[2-[bis[2-[(acetyloxy)methoxy]-2-oxyethyl]amino]-5-methyl-phenoxy[ethoxy]phenyl]-N-[2-[(acetyloxy)methoxy]-2-oxyethyl]-glycine, (acetyloxy)methyl ester) was purchased from Molecular Probes (Eugene, Oreg.).
The cDNAs for the human TRPV1 receptor (hTRPV1) were isolated by reverse transcriptase-polymerase chain reaction (RT-PCR) from human small intestine poly A+ RNA supplied by Clontech (Palo Alto, Calif.) using primers designed surrounding the initiation and termination codons identical to the published sequences (Hayes et al. Pain 2000, 88, 205-215). The resulting cDNA PCR products were subcloned into pClneo mammalian expression vector (Promega) and fully sequenced using fluorescent dye-terminator reagents (Prism, Perkin-Elmer Applied Biosystems Division) and a Perkin-Elmer Applied Biosystems Model 373 DNA sequencer or Model 310 genetic analyzer. Expression plasmids encoding the hTRPV1 cDNA were transfected individually into 1321N1 human astrocytoma cells using Lipofectamine®. Forty-eight hours after transfection, the neomycin-resistant cells were selected with growth medium containing 800 μg/mL Geneticin (Gibco BRL). Surviving individual colonies were isolated and screened for TRPV1 receptor activity. Cells expressing recombinant homomeric TRPV1 receptors were maintained at 37° C. in D-MEM containing 4 mM L-glutamine, 300 μg/mL G418 (Cal-biochem) and 10% fetal bovine serum under a humidified 5% CO2 atmosphere.
The functional activity of compounds at the TRPV1 receptor was determined with a Ca^2+ influx assay and measurement of intracellular Ca^2+ levels ([Ca^2+]i). All compounds were tested over an 11-point half-log concentration range. Compound solutions were prepared in D-PBS (4× final concentration), and diluted serially across 96-well v-bottom tissue culture plates using a Biomek 2000 robotic automation workstation (Beckman-Coulter, Inc., Fullerton, Calif.). A 0.2 μM solution of the TRPV1 agonist capsaicin was also prepared in D-PBS. The fluorescent Ca^2+ chelating dye Fluo-4 AM was used as an indicator of the relative levels of [Ca^2+]i in a 96-well format using a Fluorescence Imaging Plate Reader (FLIPR)(Molecular Devices, Sunnyvale, Calif.). Cells were grown to confluency in 96-well black-walled tissue culture plates. Then, prior to the assay, the cells were loaded with 100 μL per well of Fluo-4 AM (2 μM, in D-PBS) for 1-2 hours at 23° C. Washing of the cells was performed to remove extracellular Fluo-4 AM (2×1 mL D-PBS per well), and afterward, the cells were placed in the reading chamber of the FLIPR instrument. 50 μL of the compound solutions were added to the cells at the 10 second time mark of the experimental run. Then, after a 3-minute time delay, 50 μL of the capsaicin solution was added at the, 190 second time mark (0.05 μM final concentration)(final volume=200 μL) to challenge the TRPV1 receptor. Time length of the experimental run was 240 seconds. Fluorescence readings were made at 1 to 5 second intervals over the course of the experimental run. The peak increase in relative fluorescence units (minus baseline) was calculated from the 190 second time mark to the end of the experimental run, and expressed as a percentage of the 0.05 μM capsaicin (control) response. […]

human TRPV1 = target: T2, human TRPV1 (Homo sapiens, UniProt Q8NER1); experiment: Acid activation assay, ratiometric calcium imaging; type: cell-based; conditions: HEK293-F cells expressing human TRPV1, Example 56 at 3 μM; for block of TRPV1-mediated increase in intracellular calcium concentration in response to pH 5.5: acid pH 5.5; for block of TRPV1-mediated increase in intracellular calcium concentration in response to capsaicin: capsaicin 1 μM
T2 construct: expressed in transfected cells; host or cells: HEK293-F cells, transient transfection
T2 sequence (Q8NER1 whole entry): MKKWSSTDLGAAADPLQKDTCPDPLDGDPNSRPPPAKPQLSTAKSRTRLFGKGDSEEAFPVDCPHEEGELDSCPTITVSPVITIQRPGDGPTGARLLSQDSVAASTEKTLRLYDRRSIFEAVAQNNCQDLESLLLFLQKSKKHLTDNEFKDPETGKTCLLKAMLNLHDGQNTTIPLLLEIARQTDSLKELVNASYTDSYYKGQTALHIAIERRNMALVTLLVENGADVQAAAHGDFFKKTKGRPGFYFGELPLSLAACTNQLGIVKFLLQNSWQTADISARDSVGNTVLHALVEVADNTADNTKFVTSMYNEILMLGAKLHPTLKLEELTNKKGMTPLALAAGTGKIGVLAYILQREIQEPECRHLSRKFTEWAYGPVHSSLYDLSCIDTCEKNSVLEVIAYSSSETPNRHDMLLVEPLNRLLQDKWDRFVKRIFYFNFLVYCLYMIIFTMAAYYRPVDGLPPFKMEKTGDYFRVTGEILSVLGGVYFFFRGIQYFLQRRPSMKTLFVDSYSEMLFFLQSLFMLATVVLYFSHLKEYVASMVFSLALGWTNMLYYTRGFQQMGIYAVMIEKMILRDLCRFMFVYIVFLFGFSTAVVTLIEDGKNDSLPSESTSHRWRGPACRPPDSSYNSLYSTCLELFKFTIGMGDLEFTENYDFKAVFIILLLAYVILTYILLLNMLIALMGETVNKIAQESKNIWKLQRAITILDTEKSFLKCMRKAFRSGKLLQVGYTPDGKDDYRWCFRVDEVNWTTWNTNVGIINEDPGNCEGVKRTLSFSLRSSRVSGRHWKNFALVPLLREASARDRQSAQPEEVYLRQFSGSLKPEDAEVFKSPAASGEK
Procedure: The differential effects of TRPV1 antagonists on capsaicin- or acid-induced responses were verified by ratiometric calcium imaging. Transiently transfected HEK293-F cells expressing human TRPV1 were incubated with 5 μM Fura-2AM for 30 minutes at 37° C. Intracellular calcium concentration was measured on an imaging system consisting of the X-Cite™ 120 Fluorescence Illumination System (EXFO) and a Digital Camera (C4742-95, Hamamatsu Photonics) connected to an Olympus 1×71 microscope. Through the control of Slide Book 4.2 software, fluorescence was measured during excitation at 340 and 380 nm; the ratio of the fluorescence at both excitation wavelengths (F340/F380) was monitored. D-PBS, pH 7.4 (Invitrogen, catalog no. 14287) was used as the extracellular solution. Acidic buffer was prepared by titrating D-PBS, pH 7.4 with 7 N HCl to pH 5.5. Agonists and antagonists were prepared in the pH 7.4 or 5.5 solutions. Rapid solution switch was achieved by using a ValveLink system.
Over the time 1250-second course, the cells were challenged sequentially with solutions containing Example 56 (3 μM), Example 56 (3 μM) plus capsaicin (1 μM), Example 56 (3 μM) plus acid (pH 5.5), or acid (pH 5.5) alone. The black bars above the traces designate addition and duration of solution applications. Spaces between horizontal bars represent periods in which cells were perfused with D-PBS, pH 7.4 alone. […]

[2] = Rat telemetry protocol, core body temperature; type: in vivo; conditions: core body temperature of rats one hour post dosing, 100 μmol/kg p.o., relative to vehicle
Procedure: Male, Sprague Dawley rats, 225-250 grams were anesthetized with Sevoflurane (Abbott Laboratories). Rats were placed on a heating pad and covered with a sterile surgical drape. A ventral midline abdominal incision was made and sterile cotton tip applicators were used to gently move internal tissue and expose the abdominal aorta for implantation of the telemetry catheter (Data Sciences International; TL11M2-050-PXT). Blood flow was temporarily stopped to the lower extremities (5-7 min) with Diffenbach clamps to allow the insertion of the telemetry catheter into the abdominal aorta. Once inserted, a sterile cellulose patch was placed over the catheter/aorta and secured using a small amount of tissue adhesive (Vetbond, 3M). Once catheter placement was complete, the clamps were removed and blood flow was restored to the lower extremities. Thetransmitter was placed in the intraperitoneal cavity. The transmitter suture rib was sewn into the abdominal sutures to secure it in place. The skin was closed using sterile wound clips and the animal removed from Sevoflurane. Buprenex ([…] s.c.; Phoenix) was administered for post-operative analgesia. Animals were maintained on a heating pad until ambulatory, and then individually housed with food and water ad lib. Surgical staples were removed after 7-10 days post-implantation. Rats were allowed a 2-week post-surgical recovery period before treatment with test compound. Oral dosing (p.o.) was at time zero, with rats receiving a single dose of vehicle (10% EtOH, 20% Tween-80, 70% PEG-400) or a 100 μmol/kg dose of compound dissolved in vehicle. Temperature measurements were recorded every 15 minutes for the duration of the study (24 hours).
Representative compounds described herein have the novel property of having limited transient temperature effect on core body temperature of a mammal (e.g. rats). For example, compounds tested alter core body temperature of rats by less than about +0.5° C. at about 1 hour after administration of a single dose (100 μmol/kg) of the test compounds orally, for example, in the range from about −2.5° C. to less than about +0.5° C., from about −0.5° C. to less than about +0.5° C.; or from about −0.3° C. to about +0.3° C.
The term “core body temperature” as used herein, means the temperature measured in the intraperitoneal cavity.

T1 sequence (Q8NER1 whole entry): as above

SMILES | IC50 [1] | block of TRPV1-mediated increase in intracellular calcium concentration in response to pH 5.5 (human TRPV1) | block of TRPV1-mediated increase in intracellular calcium concentration in response to capsaicin (human TRPV1) | Δ Temp (° C.) [2]
CCCC1(CCC)C[C@@H](NC(=O)Nc2cccc3c2cnn3C)c2cc(F)ccc2O1 [Example 61, N-[(4R)-6-fluoro-2,2-dipropyl-3,4-dihydro-2H-chromen-4-yl]-N′-(1-methyl-1H-indazol-4-yl)urea] | 31 nM | did not completely block | completely blocked | 0.3 °C
CC(=O)Nc1nc2c(Oc3cc(N4CCN(C(C)c5ccc(F)cc5)CC4)ncn3)cccc2s1 (centres unmarked) [AMG 628, reference compound] | – | completely blocked | completely blocked | –
CCC1(CC)C[C@@H](NC(=O)Nc2cccc3c2cnn3C)c2cccc(OC(F)(F)F)c2O1 [Example 55, N-[(4R)-2,2-diethyl-8-(trifluoromethoxy)-3,4-dihydro-2H-chromen-4-yl]-N′-(1-methyl-1H-indazol-4-yl)urea] | 16 nM | did not completely block | completely blocked | 0.3 °C
CCC1(CC)C[C@@H](NC(=O)Nc2cccc3c2cnn3C)c2cc(F)ccc2O1 [Example 26, N-[(4R)-2,2-diethyl-6-fluoro-3,4-dihydro-2H-chromen-4-yl]-N′-(1-methyl-1H-indazol-4-yl)urea] | 50 nM | did not completely block | completely blocked | 0.1 °C

From patent publication US8604053B2, “TRPV1 antagonists” (AbbVie Inc., priority 2008, dated 2013)
